“Also recorded” adds a separate entry of the source.
Key:
[1] = test system: Zucker diabetic fatty (ZDF) rat; conditions: ZDF rats
Experimental: Each pancreas was divided into 2 parts (longitudinal cut). One piece was fixed in 10% formalin solution for histopathological processing. The other piece of pancreas was flash frozen and kept at −80° C. for determination of insulin and proinsulin levels.
Each pancreas sample was fixed in 4% formalin during 24-48 hours maximum; the volume of formalin was 5-10 times higher than the sample volume to assure appropriate fixation. After 48 h, the samples were placed in 70% ethanol.

[2] = test system: Zucker diabetic fatty (ZDF) rat; experiment: Fructosamine and HbA1c in ZDF rats (Example 3); format: in vivo; conditions: metformin 200 mg/kg/day, vs vehicle ZDF
Experimental: For the groups treated with AB14, the antibody was administered once weekly via the caudal vein (i.v., 5 mL/kg) on days 1, 8, 15, and 22 at two different doses 20 mg/kg/week (groups 3 and 7) or 60 mg/kg/week (groups 4 and 8). All other groups were treated once weekly with vehicle 1 (i.v., 5 mL/kg). The intravenous treatments were performed in the morning on day 1, 8, 15, and 22 while under isoflurane anaesthesia. The volume of administration was individually adapted according to the most recent body weight.
All other groups were treated daily with vehicle 2 (p.o., 5 mL/kg) for 28 days. The most recent body weight was used to calculate the average volume of administration in each group.
Fasting blood glucose (glucometers) was measured on days 0, 12, 19, and 26. Fasting plasma insulin, peptide-C (ELISA method), free fatty acids, triglycerides, total cholesterol (colorimetric method), and HDL-cholesterol (phosphotungstate precipitation, colorimetric method) were measured on day 0, and prior to dosing on days 12, 19, and day 26. Non HDL-cholesterol was calculated as total cholesterol—HDL-cholesterol. Fructosamine was measured on days 0, 19 and 28. HbA1c (DCA 2000) was measured on days 0 and 28.

HFD rats [3] = experiment: Body weight and food intake in high fat/high fructose diet (HFD) rats (Example 2); format: in vivo, rat; conditions: vs HFD vehicle
Experimental: (§1) After 6 weeks of HFD rats were randomized to treatment groups according to their glucose intolerance (AUC calculation during an oral glucose tolerance test (OGTT)) and their HOMA-IR (insulin resistance index).
(§2) Body weight and food consumption were measured 3 times per week until 10 days of treatment. HOMA-IR was measured on day 10 and 15. A 2-step clamp (5 mU/kg/min and then 15 mU/kg/min insulin) was performed on day 15 or 16. Glucose Turnover (GTO) was assessed using ^3H-glucose tracer infusion during the clamp procedure.
(§3) Ab14 (10, 30, 100 mg/kg) and the vehicle were weekly administered via i.v. route (via the caudal vein, under isoflurane anaesthesia), in the morning, on day 1 and day 8 of treatment.
Body weight was measured once a week during the first six week of HFD. Body weight was measured 3 times per week during the first 10 days of treatment. Food consumption was measured over 48 h or 72 h, just before treatment and 3 times per week during treatment until surgery procedure (day 11).

Normal rats = experiment: Blood glucose, plasma insulin and HOMA-IR before clamp in normal rats (Example 1); format: in vivo, rat; conditions: vs vehicle
Experimental: The antibody used in this example consisted of the light and heavy polypeptide chains of SEQ ID NOs 132 and 134.
Blood glucose (BG) was measured between 07:30 and 08:00 (just before the light off) am from the tip of the tail with glucometer and a blood collection (on EDTA) was performed just after to measure plasma insulin. The table below describes the conditions:
Plasma samples were kept at −80° C. until insulin measurement (using ELISA method).
Vehicle and Ab14 were administered by i.v. route 48 h before the T0 of clamp procedure (at 02:00 pm two days before the clamp).
The rats were fasted 6 hours before the start of the clamp (at ˜8 h, just after the blood collection).

HFD rats [4] = experiment: Fasting blood glucose, plasma insulin, C-peptide and HOMA-IR in HFD rats (Example 2); format: in vivo, rat; conditions: vs HFD vehicle
Experimental: as §1, §2, §3
Before the start of the treatment (the day of OGTT) and on day 10 of treatment, all rats were fasted from 08:00 am. At 01:30 pm, blood was collected from the from the tip tail (40 μL on EDTA). Blood glucose (using glucometers) and plasma insulin (ELISA method) were measured.
Plasma insulin and C peptide levels were measured just before the infusion starts (˜T-30 min.), at the end of the steady state of step 1 (T2 h) and step 2 (T3.5 h). For that, blood collection was performed from the tip of the tail (˜100 μL, on EDTA).

[5] = Ab14 60 mg/kg/wk., Met. 200 mg/kg/day
[6] = Ab14 10, 30, 100 mg/kg/week i.v., metformin 200 mg/kg/day
[7] = day 10, Ab14 10, 30, 100 mg/kg/week, metformin 200 mg/kg/day

## CN(C)C(=N)N=C(N)N [metformin, reference compound]
[1]; AB14 60 mg/kg, metformin, or combined, vs vehicle ZDF
  vacuolization and islet fibrosis severity: trend towards a decrease
[1]; [5]
  Arteries, medial/intimal hypertrophy, severity 0, incidence: 9
  Arteries, medial/intimal hypertrophy, severity 1, incidence: 1
  Brown pigment-laden, severity 1, incidence: 7
  Brown pigment-laden, severity 2, incidence: 3
  Eosinophilic granulocyte infiltration, severity 0, incidence: 10
  Exocrine cell vacuolation, severity 0, incidence: 10
  Fat tissue: Fat tissue necrosis, group mean score: 0
  Interstitial fibroplasia/fibrosis, severity 0, incidence: 9
  Interstitial fibroplasia/fibrosis, severity 1, incidence: 1
  Interstitial hemorrhage, severity 0, incidence: 4
  Interstitial hemorrhage, severity 1, incidence: 6
  Islet Cell Vacuolation, severity 0, incidence: 1
  Islet Cell Vacuolation, severity 1, incidence: 4
  Islet Cell Vacuolation, severity 2, incidence: 5
  Islet Fibrosis, severity 1, incidence: 3
  Islet Fibrosis, severity 2, incidence: 7
  Islet cell anisocytosis/anisokaryosis, severity 0, incidence: 2
  Islet cell anisocytosis/anisokaryosis, severity 1, incidence: 8
  Islet cell mitosis, severity 0, incidence: 5
  Islet cell mitosis, severity 1, incidence: 5
  Islet cell single cell necrosis, severity 0, incidence: 7
  Islet cell single cell necrosis, severity 1, incidence: 3
  Islet granulocytic infiltration, severity 0, incidence: 6
  Islet granulocytic infiltration, severity 1, incidence: 4
  Islet hemorrhage, severity 0, incidence: 8
  Islet hemorrhage, severity 1, incidence: 2
  Large/Giant Islets, severity 0, incidence: 1
  Large/Giant Islets, severity 1, incidence: 1
  Large/Giant Islets, severity 2, incidence: 3
  Large/Giant Islets, severity 3, incidence: 5
  Lymph node: Brown pigment-laden macrophages, group mean score: 0
  Lymph node: Eosinophilic granulocyte infiltration, group mean score: 0.5
  Lymph node: Erythrophagocytosis—sinusoidal, group mean score: 0
  Lymph node: Pink protein rich sinusoidal lymph, group mean score: 0
  Lymph node: Sinusoidal hemorrhage, group mean score: 0
  Lymph node: Sinusoidal mast cells, group mean score: 0
  Mononuclear cell infiltration, severity 1, incidence: 10
  Pancreas: Arteries, medial/intimal hypertrophy, group mean score: 0
  Pancreas: Brown pigment-laden macrophages, group mean score: 1
  Pancreas: Eosinophilic granulocyte infiltration, group mean score: 0
  Pancreas: Exocrine cell vacuolation, group mean score: 0
  Pancreas: Interstitial fibroplasia/fibrosis, group mean score: 0
  Pancreas: Interstitial hemorrhage, group mean score: 1
  Pancreas: Islet cell anisocytosis/anisokaryosis, group mean score: 1
  Pancreas: Islet cell mitosis, group mean score: 0.5
  Pancreas: Islet cell single cell necrosis, group mean score: 0
  Pancreas: Islet cell vacuolation, group mean score: 1.5
  Pancreas: Islet fibrosis, group mean score: 2
  Pancreas: Islet granulocytic infiltration, group mean score: 0
  Pancreas: Islet hemorrhage, group mean score: 0
  Pancreas: Large/giant islet(s), group mean score: 2.5
  Pancreas: Mononuclear cell infiltration, group mean score: 1
  Pancreas: Pancreatic ductule hyperplasia, group mean score: 0.5
  Pancreatic ductule hyperplasia, severity 0, incidence: 5
  Pancreatic ductule hyperplasia, severity 1, incidence: 5
[2]; 28 days, pioglitazone 10 mg/kg/day
  decrease of HbA1c: 15%
[2]; day 19, pioglitazone 10 mg/kg/day
  reduction of fructosamine levels: 6%
HFD rats [3]; 10 days of treatment, Ab14 10, 30, 100 mg/kg/week i.v., metformin 200 mg/kg/day
  body weight: significantly decreased
HFD rats [3]; Ab14 30 mg/kg, metformin 200 mg/kg
  body weight gain: significantly decreased
HFD rats [3]; [6]
  decrease of cumulative food consumption: 25%
  food consumption (follow-up food intake): significantly decreased
Normal rats; fed, 42 h after Ab14 100 mg/kg i.v., 18 h after metformin 500 mg/kg p.o.
  blood glucose in fed conditions: did not affect; also recorded: not affected
Normal rats; fed, 42 h after Ab14 100 mg/kg i.v., 18 h after metformin 500 mg/kg p.o., not significant
  decrease of plasma insulin level in fed condition: 18%
Normal rats; metformin 500 mg/kg p.o.
  decrease of blood glucose in 6 hours fasting condition, just before clamp: 17%
HFD rats [4]; [7]
  decrease of HOMA-IR: 36%
  decrease of fasting plasma insulin: 37%
  fasting blood glucose: no effect
HFD rats [4]; day 15, metformin 200 mg/kg/day
  decrease of plasma C-peptide level: 13%
HFD rats [4]; day 15, metformin 200 mg/kg/day, ns
  decrease of fasting plasma insulin: 11%
